Structures are written as SMILES. Activity calls are given as the source filed them.

Assay [1] addresses 26S proteasome non-ATPase regulatory subunit 14 (Homo sapiens, UniProt O00487). Put plainly: inhibition of proteasome subunit RPN11 – biochemical, fluorescence polarization, uHTS hits, confirmation (AID 602368). It is filed as functional. In general terms: Polarisation of emitted light reports the rotation of a fluorescent probe.
In assay [2] the target is 72 kDa type IV collagenase (Homo sapiens, UniProt P08253). Put plainly: Dose Response validation of uHTS RPN11 inhibitor hits using a MMP-2 Fluorescence assay. It is filed as functional.
Chain of 72 kDa type IV collagenase (P08253 whole entry): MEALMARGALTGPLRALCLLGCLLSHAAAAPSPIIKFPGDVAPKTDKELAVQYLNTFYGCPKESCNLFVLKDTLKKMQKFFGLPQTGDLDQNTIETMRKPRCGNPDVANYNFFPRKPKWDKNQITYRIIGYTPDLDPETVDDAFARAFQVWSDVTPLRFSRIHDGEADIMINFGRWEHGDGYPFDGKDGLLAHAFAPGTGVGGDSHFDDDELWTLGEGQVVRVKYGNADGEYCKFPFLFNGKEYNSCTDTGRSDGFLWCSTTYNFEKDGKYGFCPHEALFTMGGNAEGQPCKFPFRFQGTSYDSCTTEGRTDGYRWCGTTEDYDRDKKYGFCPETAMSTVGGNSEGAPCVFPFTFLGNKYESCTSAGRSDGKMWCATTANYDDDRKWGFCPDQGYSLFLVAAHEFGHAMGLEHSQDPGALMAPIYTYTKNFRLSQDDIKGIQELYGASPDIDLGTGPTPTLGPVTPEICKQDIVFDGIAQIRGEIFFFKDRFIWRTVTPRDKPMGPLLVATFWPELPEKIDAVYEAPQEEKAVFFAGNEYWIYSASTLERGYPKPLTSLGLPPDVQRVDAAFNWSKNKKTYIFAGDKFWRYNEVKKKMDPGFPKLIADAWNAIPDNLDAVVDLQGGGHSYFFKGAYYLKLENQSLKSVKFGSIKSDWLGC
The next assay addresses Prothrombin (Bos taurus, UniProt P00735). In words: thrombin protease inhibitors – biochemical, fluorescence polarization, uHTS hits, dose response (AID 602369). In kind it is functional.
The target in another assay is Nonstructural protein 1 (Influenza A virus, UniProt Q194T2). It is filed as functional, Influenza A virus (A/California/07/2009(H1N1)).
Chain of Nonstructural protein 1 (Q194T2 whole entry): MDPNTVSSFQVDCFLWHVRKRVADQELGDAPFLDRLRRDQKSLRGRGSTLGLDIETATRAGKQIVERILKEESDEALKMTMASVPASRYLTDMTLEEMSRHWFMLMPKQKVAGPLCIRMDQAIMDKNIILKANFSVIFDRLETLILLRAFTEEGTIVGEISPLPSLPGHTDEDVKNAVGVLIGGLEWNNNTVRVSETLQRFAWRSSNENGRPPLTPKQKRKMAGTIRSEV
The target in assay [3] is Apoptotic protease-activating factor 1 (Homo sapiens, UniProt O14727). It is filed as functional.
Chain of Apoptotic protease-activating factor 1 (O14727 whole entry): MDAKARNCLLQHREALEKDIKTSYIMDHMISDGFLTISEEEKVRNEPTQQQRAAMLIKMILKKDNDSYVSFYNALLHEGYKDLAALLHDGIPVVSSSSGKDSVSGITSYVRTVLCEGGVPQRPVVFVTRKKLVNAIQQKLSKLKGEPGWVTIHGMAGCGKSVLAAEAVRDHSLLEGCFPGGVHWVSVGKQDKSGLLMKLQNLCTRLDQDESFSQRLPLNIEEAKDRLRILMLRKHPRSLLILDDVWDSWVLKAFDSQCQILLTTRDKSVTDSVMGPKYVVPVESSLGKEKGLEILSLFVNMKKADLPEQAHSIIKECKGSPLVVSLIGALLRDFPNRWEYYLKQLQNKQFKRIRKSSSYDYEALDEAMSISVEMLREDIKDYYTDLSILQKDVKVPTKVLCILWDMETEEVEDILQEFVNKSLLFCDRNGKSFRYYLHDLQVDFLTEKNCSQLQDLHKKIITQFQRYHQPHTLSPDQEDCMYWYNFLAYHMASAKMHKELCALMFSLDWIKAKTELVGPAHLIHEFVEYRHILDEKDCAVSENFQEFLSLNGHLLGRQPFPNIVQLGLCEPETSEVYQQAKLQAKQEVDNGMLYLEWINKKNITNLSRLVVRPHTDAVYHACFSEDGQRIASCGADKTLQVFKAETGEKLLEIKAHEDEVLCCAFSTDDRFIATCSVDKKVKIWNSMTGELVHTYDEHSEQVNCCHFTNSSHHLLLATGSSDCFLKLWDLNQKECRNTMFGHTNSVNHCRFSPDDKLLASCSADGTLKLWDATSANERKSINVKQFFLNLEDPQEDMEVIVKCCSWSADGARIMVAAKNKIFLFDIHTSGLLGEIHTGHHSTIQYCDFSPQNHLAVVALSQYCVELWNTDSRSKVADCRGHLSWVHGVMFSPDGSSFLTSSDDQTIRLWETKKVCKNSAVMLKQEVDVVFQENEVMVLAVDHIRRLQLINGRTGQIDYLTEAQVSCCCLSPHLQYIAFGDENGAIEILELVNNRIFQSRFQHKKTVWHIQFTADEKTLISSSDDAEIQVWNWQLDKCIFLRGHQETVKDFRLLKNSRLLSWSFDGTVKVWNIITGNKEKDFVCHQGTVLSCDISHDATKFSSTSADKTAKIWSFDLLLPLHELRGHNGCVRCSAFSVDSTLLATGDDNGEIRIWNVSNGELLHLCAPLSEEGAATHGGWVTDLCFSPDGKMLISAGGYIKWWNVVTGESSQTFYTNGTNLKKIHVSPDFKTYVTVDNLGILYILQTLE
The next assay deals with HeLa. Put plainly: ATP-based viability loss in HeLa cells – cell-based, CellTiter-Glo luminescence, cherry-pick samples, cytotoxicity control for MITF activator project, dose response (AID 540259). The conditions noted are these: Homo sapiens. In kind it is functional. In general terms: In ATP-based viability assays light output follows the ATP content of the culture.
A further assay concerns the target Cytochrome P450 3A4 (Homo sapiens, UniProt P08684). The conditions noted are these: Potency.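 Further: confirmatory qHTS run detecting inhibitors and substrates of CYP3A4.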
The target in assay [4] is Aryl hydrocarbon receptor (Homo sapiens, UniProt P35869). The conditions noted are these: Potency.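 Further: confirmatory quantitative high-throughput screen measuring activation of the AhR signaling pathway.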
The target of a further assay is DNA topoisomerase (Yersinia pestis, UniProt A0A2S9PM60). Put plainly: Yersinia topoisomerase I cleavage product accumulation – biochemical, cherry-pick, dose response (AID 588525).
Chain of DNA topoisomerase (A0A2S9PM60 whole entry): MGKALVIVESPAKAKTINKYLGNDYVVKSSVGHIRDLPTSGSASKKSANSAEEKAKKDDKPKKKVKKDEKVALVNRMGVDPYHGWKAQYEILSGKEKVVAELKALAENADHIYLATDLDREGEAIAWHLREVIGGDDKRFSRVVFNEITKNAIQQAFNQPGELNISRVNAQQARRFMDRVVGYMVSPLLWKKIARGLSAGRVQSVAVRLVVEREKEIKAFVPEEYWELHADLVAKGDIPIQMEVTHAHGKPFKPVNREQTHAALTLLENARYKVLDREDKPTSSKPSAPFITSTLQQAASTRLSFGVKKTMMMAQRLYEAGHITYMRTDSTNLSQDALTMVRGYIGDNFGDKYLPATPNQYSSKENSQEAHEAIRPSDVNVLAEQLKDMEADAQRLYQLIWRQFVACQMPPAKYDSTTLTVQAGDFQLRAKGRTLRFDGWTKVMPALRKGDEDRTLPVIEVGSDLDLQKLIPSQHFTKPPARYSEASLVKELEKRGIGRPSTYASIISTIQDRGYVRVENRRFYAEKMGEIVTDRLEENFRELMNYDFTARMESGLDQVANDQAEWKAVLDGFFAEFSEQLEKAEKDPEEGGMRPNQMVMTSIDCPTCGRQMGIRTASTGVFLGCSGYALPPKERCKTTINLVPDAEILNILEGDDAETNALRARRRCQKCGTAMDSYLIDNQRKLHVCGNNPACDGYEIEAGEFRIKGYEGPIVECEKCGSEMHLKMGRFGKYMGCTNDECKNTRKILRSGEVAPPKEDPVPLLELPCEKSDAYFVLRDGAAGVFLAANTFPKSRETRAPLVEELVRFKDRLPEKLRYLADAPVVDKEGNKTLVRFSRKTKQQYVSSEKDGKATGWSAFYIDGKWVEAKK
For assay [5], the target named is DNA repair and recombination protein RAD54-like (Homo sapiens, UniProt Q92698). In words: RAD54 Holliday junction migration blockers – biochemical, fluorescence, cherry-picked samples, dose series, confirmation (AID 651657). In kind it is functional.
Assay [6] has as its target T1, Histone-lysine N-methyltransferase NSD2 (Homo sapiens, UniProt O96028).
T1 sequence (O96028 whole entry): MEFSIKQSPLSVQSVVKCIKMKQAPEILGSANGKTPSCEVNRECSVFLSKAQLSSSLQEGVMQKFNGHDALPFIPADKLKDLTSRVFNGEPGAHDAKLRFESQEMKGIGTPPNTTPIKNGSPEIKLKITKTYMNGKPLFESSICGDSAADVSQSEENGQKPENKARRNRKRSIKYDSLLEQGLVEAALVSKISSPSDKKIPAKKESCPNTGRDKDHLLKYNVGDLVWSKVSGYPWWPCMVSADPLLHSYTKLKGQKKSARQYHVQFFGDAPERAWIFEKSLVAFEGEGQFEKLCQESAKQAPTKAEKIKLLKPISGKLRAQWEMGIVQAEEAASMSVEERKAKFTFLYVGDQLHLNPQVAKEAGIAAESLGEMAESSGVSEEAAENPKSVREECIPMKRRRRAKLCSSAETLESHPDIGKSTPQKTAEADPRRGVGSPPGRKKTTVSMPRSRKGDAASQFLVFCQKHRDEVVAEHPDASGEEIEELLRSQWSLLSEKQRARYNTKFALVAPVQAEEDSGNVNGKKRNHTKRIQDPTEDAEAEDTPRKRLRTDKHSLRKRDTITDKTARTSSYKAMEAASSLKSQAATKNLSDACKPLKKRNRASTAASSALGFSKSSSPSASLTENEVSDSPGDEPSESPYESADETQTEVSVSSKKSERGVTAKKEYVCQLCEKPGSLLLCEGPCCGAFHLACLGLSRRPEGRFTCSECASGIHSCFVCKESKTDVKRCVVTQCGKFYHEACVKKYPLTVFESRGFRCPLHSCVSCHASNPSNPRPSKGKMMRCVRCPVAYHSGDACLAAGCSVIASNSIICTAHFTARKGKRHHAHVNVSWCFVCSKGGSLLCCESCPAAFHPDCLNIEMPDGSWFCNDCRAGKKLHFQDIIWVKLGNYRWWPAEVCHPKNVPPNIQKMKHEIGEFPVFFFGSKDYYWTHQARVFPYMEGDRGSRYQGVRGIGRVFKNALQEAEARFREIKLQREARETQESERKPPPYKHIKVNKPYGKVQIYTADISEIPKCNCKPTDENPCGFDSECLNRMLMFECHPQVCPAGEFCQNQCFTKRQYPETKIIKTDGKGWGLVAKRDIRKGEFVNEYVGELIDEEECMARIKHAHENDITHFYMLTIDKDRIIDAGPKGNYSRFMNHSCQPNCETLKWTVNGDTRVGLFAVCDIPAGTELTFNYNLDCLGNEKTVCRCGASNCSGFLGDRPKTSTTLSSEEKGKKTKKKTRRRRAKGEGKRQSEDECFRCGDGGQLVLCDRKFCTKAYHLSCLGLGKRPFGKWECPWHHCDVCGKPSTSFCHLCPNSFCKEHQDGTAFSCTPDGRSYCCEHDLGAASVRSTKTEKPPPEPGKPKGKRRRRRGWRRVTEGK
In kind it is biochemical.

A further assay concerns the target Hexokinase-1 (Homo sapiens, UniProt P19367). In words: SAR analysis of small molecule inhibitors of hexokinase domain containing I (HKDC1) in the hexokinase 1 selectivity assay. [Related pubchem assays (depositor defined):AID493160, AID493190]. It is filed as functional.
In a further assay the target is T2, Hexokinase HKDC1 (Homo sapiens, UniProt Q2TB90).
T2 sequence (Q2TB90 whole entry): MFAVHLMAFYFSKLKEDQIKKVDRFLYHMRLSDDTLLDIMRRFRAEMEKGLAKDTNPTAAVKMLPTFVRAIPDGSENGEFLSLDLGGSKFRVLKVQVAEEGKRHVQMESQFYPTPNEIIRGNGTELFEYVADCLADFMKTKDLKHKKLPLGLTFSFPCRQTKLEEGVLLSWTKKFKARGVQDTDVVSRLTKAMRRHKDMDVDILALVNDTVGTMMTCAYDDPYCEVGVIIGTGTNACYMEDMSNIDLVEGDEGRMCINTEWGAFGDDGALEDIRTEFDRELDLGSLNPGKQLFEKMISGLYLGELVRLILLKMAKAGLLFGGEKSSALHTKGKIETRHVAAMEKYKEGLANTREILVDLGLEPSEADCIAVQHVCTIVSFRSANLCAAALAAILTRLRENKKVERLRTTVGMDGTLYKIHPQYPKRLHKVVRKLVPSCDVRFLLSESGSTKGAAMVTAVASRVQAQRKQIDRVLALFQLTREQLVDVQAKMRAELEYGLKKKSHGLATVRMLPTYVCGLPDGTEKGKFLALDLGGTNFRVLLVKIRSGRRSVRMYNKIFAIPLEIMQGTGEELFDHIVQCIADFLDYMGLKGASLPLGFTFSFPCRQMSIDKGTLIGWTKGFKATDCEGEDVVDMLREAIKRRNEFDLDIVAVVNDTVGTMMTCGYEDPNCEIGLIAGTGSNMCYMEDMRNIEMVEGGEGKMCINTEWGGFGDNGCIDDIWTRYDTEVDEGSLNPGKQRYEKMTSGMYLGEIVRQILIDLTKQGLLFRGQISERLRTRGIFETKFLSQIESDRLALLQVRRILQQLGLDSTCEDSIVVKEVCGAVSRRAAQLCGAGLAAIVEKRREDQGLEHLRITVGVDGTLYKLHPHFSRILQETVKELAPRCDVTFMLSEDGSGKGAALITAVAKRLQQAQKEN
In words: SAR analysis of small molecule inhibitors of hexokinase domain containing I (HKDC1). [Related pubchem assays (depositor defined):AID493160, AID493190]. In kind it is functional.

Another assay deals with Melanocortin receptor 4 (Homo sapiens, UniProt P32245). In words: inhibitors of MC4R cAMP signaling – cell-based, TR-FRET, biased antagonists, dose response (AID 602298).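 Further: antagonist potency against agonist-stimulated cAMP production.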 It is filed as functional. Background: TR-FRET usually uses a lanthanide donor and a delayed reading to cut background.
Chain of Melanocortin receptor 4 (P32245 whole entry): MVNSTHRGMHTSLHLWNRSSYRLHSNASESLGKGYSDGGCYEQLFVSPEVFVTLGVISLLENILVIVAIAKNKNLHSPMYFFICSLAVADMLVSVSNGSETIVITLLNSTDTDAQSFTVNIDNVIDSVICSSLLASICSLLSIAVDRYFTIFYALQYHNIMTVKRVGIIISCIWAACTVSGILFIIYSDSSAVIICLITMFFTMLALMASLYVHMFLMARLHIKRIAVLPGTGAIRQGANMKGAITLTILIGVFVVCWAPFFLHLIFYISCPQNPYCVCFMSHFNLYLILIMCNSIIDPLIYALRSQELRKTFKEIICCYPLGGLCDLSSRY
Assay [7] can be described thus: reduction of Shn3 3'UTR-driven luciferase in osteoblasts – cell-based, Clone20 osteoblasts, firefly luciferase, cherry-picked, dose response (AID 624132).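 Further: firefly luciferase luminescence from reporter carrying the Shn3 3'UTR in osteoblasts.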 It is filed as functional.
Assay [8] can be described thus: loss of viability in HepG2 cells – cell-based, CellTiter-Glo, cherry-picked, cytotoxicity control for Shn3 inhibitor project, dose response (AID 624134). In kind it is functional.
Assay [9] can be described thus: non-specific 3'UTR reporter inhibition in Clone20-Shn3RL – cell-based, Renilla luciferase, cherry-picked, counter-screen for Shn3 inhibitor project, dose response (AID 624133). It is filed as functional.
Assay [10] in a line: cAMP pathway inhibition in counterscreen cell line – TR-FRET cAMP detection, counter-screen for MC4R biased antagonist project, dose response (AID 602305).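 Further: U2OS cells stimulated with forskolin near its EC80 as the cAMP inducer; potency is for inhibition of forskolin-stimulated cAMP signaling.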 In kind it is functional, cell-based.
A further assay deals with Protein Wnt-3a (Mus musculus, UniProt P27467). Put plainly: antagonism of Wnt3a pathway luciferase reporter – Wnt-LIGHT cells, luminescence, selectivity assay for Gli-SUFU antagonist project, dose response (AID 651570).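 Further: Wnt-LIGHT reporter cells stimulated with conditioned medium from Wnt3a-producing cells.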 In kind it is functional. The conditions noted are these: read-out: IC50_Mean.
Chain of Protein Wnt-3a (P27467 whole entry): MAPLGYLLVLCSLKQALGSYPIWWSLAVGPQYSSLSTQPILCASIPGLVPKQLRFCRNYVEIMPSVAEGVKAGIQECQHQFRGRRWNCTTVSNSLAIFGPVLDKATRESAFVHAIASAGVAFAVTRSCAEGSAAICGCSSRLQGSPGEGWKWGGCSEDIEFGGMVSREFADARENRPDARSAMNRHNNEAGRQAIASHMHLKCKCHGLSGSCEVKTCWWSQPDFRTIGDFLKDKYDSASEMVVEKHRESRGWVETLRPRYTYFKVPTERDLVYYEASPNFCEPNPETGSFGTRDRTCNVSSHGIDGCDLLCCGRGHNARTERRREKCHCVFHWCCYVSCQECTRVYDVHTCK
The target of assay [11] is T3, Rac GTPase-activating protein 1 (Homo sapiens, UniProt Q9H0H5).
T3 sequence (Q9H0H5 whole entry): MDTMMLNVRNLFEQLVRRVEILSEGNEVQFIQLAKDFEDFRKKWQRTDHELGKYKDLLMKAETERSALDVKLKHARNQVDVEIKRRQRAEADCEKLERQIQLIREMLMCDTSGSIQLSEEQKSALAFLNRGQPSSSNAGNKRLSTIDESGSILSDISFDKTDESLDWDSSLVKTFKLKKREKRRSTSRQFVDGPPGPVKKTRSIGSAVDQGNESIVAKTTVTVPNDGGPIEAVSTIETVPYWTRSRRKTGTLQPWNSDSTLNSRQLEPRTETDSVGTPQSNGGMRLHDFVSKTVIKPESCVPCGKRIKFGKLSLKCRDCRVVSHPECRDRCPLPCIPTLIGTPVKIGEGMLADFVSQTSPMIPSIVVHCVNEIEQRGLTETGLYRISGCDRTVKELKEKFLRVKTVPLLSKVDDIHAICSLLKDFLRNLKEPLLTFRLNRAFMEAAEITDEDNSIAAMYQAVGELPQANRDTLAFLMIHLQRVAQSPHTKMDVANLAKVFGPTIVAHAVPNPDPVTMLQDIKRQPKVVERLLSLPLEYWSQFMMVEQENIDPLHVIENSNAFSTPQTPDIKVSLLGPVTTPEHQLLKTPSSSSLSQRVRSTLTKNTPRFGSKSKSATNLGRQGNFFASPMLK
Put plainly: blockers of MgcRacGAP-driven Rac1 GTP hydrolysis – biochemical, ADP Hunter fluorescence, primary and confirmatory, confirmation (AID 624330). In kind it is functional.

Assay [12] deals with Ras and Rab interactor 1/Tyrosine-protein kinase ABL1 (Homo sapiens, UniProt P00519+Q13671). In kind it is functional.

Chain of Hexokinase-1 (P19367 whole entry, the tested form may be a part): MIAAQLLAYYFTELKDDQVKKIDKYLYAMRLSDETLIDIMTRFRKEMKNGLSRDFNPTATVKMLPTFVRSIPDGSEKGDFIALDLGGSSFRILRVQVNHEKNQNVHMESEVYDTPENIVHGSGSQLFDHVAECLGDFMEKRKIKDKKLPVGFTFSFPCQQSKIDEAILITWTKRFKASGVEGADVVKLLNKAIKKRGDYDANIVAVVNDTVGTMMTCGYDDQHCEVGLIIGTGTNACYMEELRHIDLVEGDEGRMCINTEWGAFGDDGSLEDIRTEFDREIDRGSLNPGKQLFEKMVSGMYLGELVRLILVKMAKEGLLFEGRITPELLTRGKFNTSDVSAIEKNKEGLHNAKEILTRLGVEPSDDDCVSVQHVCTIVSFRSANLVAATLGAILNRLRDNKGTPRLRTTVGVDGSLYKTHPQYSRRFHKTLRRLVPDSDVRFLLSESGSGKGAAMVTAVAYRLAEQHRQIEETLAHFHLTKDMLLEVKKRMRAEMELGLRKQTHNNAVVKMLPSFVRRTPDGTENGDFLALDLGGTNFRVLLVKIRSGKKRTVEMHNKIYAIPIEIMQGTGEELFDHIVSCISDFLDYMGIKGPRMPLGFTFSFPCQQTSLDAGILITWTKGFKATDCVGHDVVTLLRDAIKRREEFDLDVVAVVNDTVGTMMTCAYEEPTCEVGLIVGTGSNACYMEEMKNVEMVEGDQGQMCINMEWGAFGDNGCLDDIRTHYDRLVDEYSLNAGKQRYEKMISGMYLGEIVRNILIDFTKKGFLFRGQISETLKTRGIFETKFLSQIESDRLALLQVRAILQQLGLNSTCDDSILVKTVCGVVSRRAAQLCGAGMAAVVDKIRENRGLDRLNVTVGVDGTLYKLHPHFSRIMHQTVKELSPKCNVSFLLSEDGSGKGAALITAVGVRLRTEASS
Chain of 26S proteasome non-ATPase regulatory subunit 14 (O00487 whole entry): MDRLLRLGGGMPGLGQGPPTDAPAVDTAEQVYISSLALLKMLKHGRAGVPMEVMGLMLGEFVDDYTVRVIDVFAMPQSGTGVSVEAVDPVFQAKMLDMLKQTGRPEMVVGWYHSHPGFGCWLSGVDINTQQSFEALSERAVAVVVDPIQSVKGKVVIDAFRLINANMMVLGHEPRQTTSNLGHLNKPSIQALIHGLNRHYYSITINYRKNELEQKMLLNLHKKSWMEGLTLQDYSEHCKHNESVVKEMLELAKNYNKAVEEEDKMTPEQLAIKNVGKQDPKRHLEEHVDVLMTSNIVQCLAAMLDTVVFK

For `O=C(Cn1cc(C(=O)COc2ccccc2)c2ccccc21)NCc1ccco1`, the IC50 in [1] was 47.6 µM (active); in assay [2] it was > 100 µM (inactive); at Prothrombin, 41.3 µM (active).

Turning to `O=[N+]([O-])c1ccc(O)c(/C=N/NC2=NS(=O)(=O)c3ccccc32)c1`, the IC50 is 2.35 µM (active) on Nonstructural protein 1, 34.9 µM (active) in [1], 5.41 µM (active) in assay [2] and 36.8 µM (active) on Prothrombin.

Regarding `COc1ccc(C(=O)Nc2ccc3c(c2)C(=O)c2ccccc2C3=O)cc1OC`, the IC50 in assay [3] was > 100 µM (inactive).

`Nc1ccc2cc3ccccc3cc2c1` [2-AMINOANTHRACENE]: the results for the AC50 (in the assay on HeLa; on Cytochrome P450 3A4; in assay [4]) were 122 µM (active), 15.8 µM (inconclusive) and 25.1 µM (inconclusive), respectively.

In the case of `Nc1cc(O)nc(SCC(=O)N2N=C(c3ccc4ccccc4c3)CC2c2ccccc2)n1` (stereo not drawn), the concentration at half-maximal activity (AC50) on DNA topoisomerase was 16.1 µM (active).

On to `CCNC1CCC(Nc2ccnc3cc(Cl)ccc23)CC1` (stereo not drawn), for which the AC50 in [5] is 25.9 µM (active); in assay [6], 7.52 µM (active).

On to `O=c1c2ccccc2nc(/C=C/c2cccc(Cl)c2)n1Cc1ccccc1`, for which the IC50 at Hexokinase-1 and at Hexokinase HKDC1 was > 80 µM (inactive) in each case.

Take `CCOC(=O)c1c(NC(=O)COc2cccc3c2CCN(C)C3=O)sc2c1CCC2`: the IC50 at Melanocortin receptor 4 was > 64.6 µM (inactive); in assay [10] it was > 64.6 µM (inactive); at Protein Wnt-3a, 6.12 µM (active). The AC50 is 5.44 µM (active) in assay [7], 41.7 µM (active) in [8] and 22.8 µM (active) in assay [9].

Consider `CC1(C)OC(=O)C(=Cc2ccc(-c3ccc(S(N)(=O)=O)cc3)o2)C(=O)O1`, for which the IC50 at Melanocortin receptor 4 is > 64.6 µM (inactive); in assay [10], > 64.6 µM (inactive); in assay [11] it was 41.8 µM (active).

As for `Oc1nc2ccccc2n1C1CCN(C(c2nnnn2C2CCCCC2)C2CC2)CC1` (stereo not drawn), in [12], the IC50 was 3.14 µM (active).

For the compound `O=c1c2ccccc2nc(/C=C/c2cccnc2)n1Cc1ccccc1Cl`, the IC50 on Hexokinase-1 and on Hexokinase HKDC1 was > 80 µM (inactive) each time.

Usually AC50 stands for the midpoint of the concentration-response curve, whichever way the signal moves.

The values above are taken from ChEMBL document CHEMBL1201862, “PubChem BioAssay data set” (2004).
